In ChEMBL document CHEMBL6127034, “Design, synthesis and biological evaluation of a novel PAK1 degrader for the treatment of triple negative breast cancer” (Bioorg Med Chem, 2024) one finds inhibition data, which are given here for 1 compound.

Molecules are shown by their SMILES. Calls of active or inactive are those of the source. The rule behind the calls is not given here.

The test system of this assay is MDA-MB-231. The assay is described as follows: Inhibition of cell migration in human MDA-MB-231 cells upto 10 uM incubated upto 48 hrs by wound healing assay. Type of assay: functional, cell-based.

Consider `Cc1ncsc1-c1ccc([C@H](C)NC(=O)[C@@H]2C[C@@H](O)CN2C(=O)[C@@H](NC(=O)CCc2cn(CCCCCCCn3c(=O)c(-c4ccc(Cl)cc4Cl)cc4cnc(NC5CC5)nc43)nn2)C(C)(C)C)cc1`, for which the inhibition entry is “Active”.
